{"source": "patent US4839374A", "about": "“4-((Bicyclic heterocyclyl)-methyl and -hetero)-piperidines” (Janssen Pharmaceutica, N.V., priority 1987, dated 1989)", "tested_on": "compound 48/80-induced lethality", "test": "Protection of rats from compound 48/80-induced lethality", "format": "in vivo, rats of an inbred Wistar strain", "settings": "Rattus norvegicus, 4 h, read-out: Compound 48/80 lethality test in rats ED50, s.c. or p.o. 1 h before compound 48/80 0.5 mg/kg i.v.; protection of 50% of animals, survival after 4 hours", "description": "Protection of rats from compound 48/80-induced lethality\nThe protection from compound 48/80-induced lethal circulatory collapse appears to be a simple way of evaluating quantitatively the antihistaminic activity of test compounds. Male rats of an inbred Wistar strain, weighing 240-260 g were used in the experiment. After overnight starvation the rats were transferred to conditioned laboratories (temp.=21±1° C., relative humidity=65+5%). The rats were treated subcutaneously or orally with a test compound or with the solvent (NaCl solution, 0.9%). […] Survival after 4 hours is therefore considered to be a safe criterion of a protective effect of drug administration. The ED50 -values of the compounds of formula (I) are listed in the first column of tables 1 to 4. Said ED50 -values are the values in mg/kg body weight at which the tested compounds protect 50% of the tested animals against compound 48/80-induced lethality. The compounds of formula (I) and the pharmaceutically acceptable acid addition salts thereof are also potent serotonin-antagonists. The potency of the subject compounds as serotonin-antagonists is clearly evidenced by the results obtained in the following tests wherein the antagonistic activity of the subject compounds on the effect of serotonin is examined."}
{"compound": "O=c1[nH]c2ccccc2c(=O)n1CCCCN1CCC(Cc2nc3ccccc3n2Cc2ccco2)CC1", "note": "[Compound 490, 3-[4-[4-[[1-(2-furanylmethyl)-1H-benzimidazol-2-yl]methyl]-1-piperidinyl]butyl]-2,4(1H,3H)-quinazolinedione]", "values": [{"measurement": "ED50", "value": 0.31, "unit": "mg/kg"}]}
{"compound": "COc1ccc(CCN2CC[C@@H](Oc3nc4ccccc4n3Cc3ccc(F)cc3)[C@H](C)C2)cc1", "note": "(relative stereo) [Compound 268]", "values": [{"measurement": "ED50", "value": 0.16, "unit": "mg/kg"}]}
{"compound": "CNc1ccccc1C(=O)NCCN1CCC(Cc2nc3cccnc3n2Cc2ccc(F)cc2)CC1", "note": "[Compound 470]", "values": [{"measurement": "ED50", "value": 0.04, "unit": "mg/kg"}]}
{"compound": "Cc1nc2sccn2c(=O)c1CCN1CCC(Cc2nc3cccnc3n2Cc2ccco2)CC1", "note": "[Compound 173]", "values": [{"measurement": "ED50", "value": 0.01, "unit": "mg/kg"}]}
{"compound": "Fc1ccc(Cn2c(CC3CCN(CCNc4ccncn4)CC3)nc3ccccc32)cc1", "note": "[Compound 501]", "values": [{"measurement": "ED50", "value": 0.04, "unit": "mg/kg"}]}
{"compound": "COc1ccc(CCN2CCC(Cc3nc4cnccc4n3Cc3ccc(F)cc3)CC2)cc1", "note": "[Compound 202, 1-[(4-fluorophenyl)methyl]-2-[[1-[2-(4-methoxyphenyl)ethyl]-4-piperidinyl]-methyl]-1H-imidazo-[4,5-c]pyridine]", "values": [{"measurement": "ED50", "value": 0.08, "unit": "mg/kg"}]}
{"compound": "c1ccc(Cn2c(CC3CCN(CCNc4ncccn4)CC3)nc3cccnc32)nc1", "note": "[Compound 340]", "values": [{"measurement": "ED50", "value": 0.08, "unit": "mg/kg"}]}
{"compound": "Cc1nc2ccccn2c(=O)c1CCN1CCC(Cc2nc3cnccc3n2Cc2ccc(F)cc2)CC1", "note": "[Compound 274]", "values": [{"measurement": "ED50", "value": 0.16, "unit": "mg/kg"}]}
{"compound": "CN1CCC(Sc2nc3ccccc3n2Cc2ccc(F)cc2)CC1", "note": "[Compound 96]", "values": [{"measurement": "ED50", "value": 0.04, "unit": "mg/kg"}]}
{"compound": "Cn1cnc([N+](=O)[O-])c1NCCN1CCC(Cc2nc3ccccc3n2Cc2ccc(F)cc2)CC1", "note": "[Compound 377, 4-[[1-[(4-fluorophenyl)methyl]-1H-benzimidazol-2-yl]methyl]-N-(1-methyl-4-nitro-1H-imidazol-5-yl)-1-piperidineethanamine]", "values": [{"measurement": "ED50", "value": 0.16, "unit": "mg/kg"}]}
{"compound": "CC(C)N1CCC(Cc2nc3ccccc3n2Cc2ccc(F)cc2)CC1", "note": "[Compound 83]", "values": [{"measurement": "ED50", "value": 0.01, "unit": "mg/kg"}]}
{"compound": "Fc1ccc(Cn2c(CC3CCN(CCc4cccs4)CC3)nc3cccnc32)cc1", "note": "[Compound 117]", "values": [{"measurement": "ED50", "value": 0.01, "unit": "mg/kg"}]}
{"compound": "Fc1ccc(Cn2c(CC3CCN(CCNc4nc5ccccc5[nH]4)CC3)nc3ccccc32)cc1", "note": "[Compound 328, N-[2-[4-[[1-[(4-fluorophenyl)methyl]-1H-benzimidazol-2-yl]methyl]-1-piperidinyl]ethyl]1H-benzimidazol-2-amine]", "values": [{"measurement": "ED50", "value": 0.16, "unit": "mg/kg"}]}
{"compound": "CN(CCN1CCC(Cc2nc3ccccc3n2Cc2ccc(F)cc2)CC1)Cc1ccccc1", "note": "[Compound 512]", "values": [{"measurement": "ED50", "value": 0.08, "unit": "mg/kg"}]}
{"compound": "c1ccc(Cn2c(CC3CCN(CCNc4ncccn4)CC3)nc3ccccc32)cc1", "note": "[Compound 344]", "values": [{"measurement": "ED50", "value": 0.02, "unit": "mg/kg"}]}
{"compound": "CSc1nc2cncnc2n1CCN1CCC(Cc2nc3ccccc3n2Cc2ccc(F)cc2)CC1", "note": "[Compound 507, 9-[2-[4-[[1-[(4-fluorophenyl)methyl]-1H-benzimidazol-2-yl]methyl]-1-piperidinyl]ethyl]-8-(methylthio)-9H-purine]", "values": [{"measurement": "ED50", "value": 0.16, "unit": "mg/kg"}]}
{"compound": "Fc1ccc(Cn2c(SC3CCN(CCNc4ncccn4)CC3)nc3ccccc32)cc1", "note": "[Compound 333, N-[2-[4-[[1-[(4-fluorophenyl)methyl]-1H-benzimidazol-2-yl]thio]-1-piperidinyl]ethyl]-2-pyrimidinamine]", "values": [{"measurement": "ED50", "value": 0.04, "unit": "mg/kg"}]}
{"compound": "COc1ccc(CCN2CCC(Cc3nc4ccncc4n3Cc3ccc(F)cc3)CC2)cc1", "note": "[Compound 204, 3-[(4-fluorophenyl)methyl]-2-[[1-[2-(4-methoxyphenyl)ethyl]-4-piperidinyl]methyl]-3H-imidazo-[4,5-c]pyridine]", "values": [{"measurement": "ED50", "value": 0.08, "unit": "mg/kg"}]}
{"compound": "Fc1ccc(Cn2c(CC3CCN(Cc4ccccc4)CC3)nc3ncccc32)cc1", "note": "[Compound 23, 1-[(4-fluorophenyl)methyl]-2-[[1-(phenylmethyl)-4-piperidinyl]methyl]-1H-imidazo[4,5-b]pyridine]", "values": [{"measurement": "ED50", "value": 0.08, "unit": "mg/kg"}]}
{"compound": "c1csc(Cn2c(CC3CCNCC3)nc3ccccc32)c1", "note": "[Compound 64, 2-(4-piperidinylmethyl)-1-(2-thienylmethyl)-1H-benzimidazole]", "values": [{"measurement": "ED50", "value": 0.04, "unit": "mg/kg"}]}
{"compound": "c1cnc(NCCN2CCC(Cc3nc4cccnc4n3Cc3ccco3)CC2)nc1", "note": "[Compound 339]", "values": [{"measurement": "ED50", "value": 0.01, "unit": "mg/kg"}]}
{"compound": "c1csc(Cn2c(CC3CCN(CCNc4nccs4)CC3)nc3cccnc32)c1", "note": "[Compound 361]", "values": [{"measurement": "ED50", "value": 0.02, "unit": "mg/kg"}]}
{"compound": "Fc1ccc(Cn2c(CC3CCN(CCNc4cnccn4)CC3)nc3ccncc32)cc1", "note": "[Compound 373, N-[2-[4-[[3-[(4-fluorophenyl)methyl]-3H-imidazo[4,5-c]pyridin-2-yl]methyl]-1-piperidinyl]ethyl]-2-pyrazinamine]", "values": [{"measurement": "ED50", "value": 0.08, "unit": "mg/kg"}]}
{"compound": "Cc1ccc(Cn2c(CC3CCNCC3)nc3ccccc32)cc1", "note": "[Compound 42, 1-[(4-methylphenyl)methyl]-2-(4-piperidinylmethyl)-1H-benzimidazole]", "values": [{"measurement": "ED50", "value": 0.02, "unit": "mg/kg"}]}
{"compound": "O=c1oc2ccccc2cc1CCN1CCC(Cc2nc3ccccc3n2Cc2cscn2)CC1", "note": "[Compound 265]", "values": [{"measurement": "ED50", "value": 0.02, "unit": "mg/kg"}]}
{"compound": "Cc1nc2ccccn2c(=O)c1CCN1CCC(Cc2nc3ccccc3n2Cc2cccs2)CC1", "note": "[Compound 257]", "values": [{"measurement": "ED50", "value": 0.02, "unit": "mg/kg"}]}
{"compound": "Cc1nc2n(c(=O)c1CCN1CCC(Cc3nc4ccccc4n3Cc3ccc(F)cc3)CC1)CCCS2", "note": "[Compound 158]", "values": [{"measurement": "ED50", "value": 0.04, "unit": "mg/kg"}]}
{"compound": "CN1CCC(Cc2nc3ccccc3n2Cc2ccccc2)CC1", "note": "[Compound 93]", "values": [{"measurement": "ED50", "value": 0.04, "unit": "mg/kg"}]}
{"compound": "COc1ccc(CCN2CCC(Cc3nc4ccccc4n3Cc3cnccn3)CC2)cc1", "note": "[Compound 524, 2-[[1-[2-(4-methoxyphenyl)ethyl]-4-piperidinyl]methyl]-1-(2-pyrazinylmethyl)-1H-benzimidazole]", "values": [{"measurement": "ED50", "value": 0.16, "unit": "mg/kg"}]}
{"compound": "Fc1ccc(Cn2c(CC3CCN(CCNc4nc5ccccc5[nH]4)CC3)nc3cccnc32)cc1", "note": "[Compound 329, N-[2-[4-[[3-[(4-fluorophenyl)methyl]-3H-imidazo[4,5-b]pyridin-2-yl]methyl]-1-piperidinyl]ethyl]1H-benzimidazol-2-amine]", "values": [{"measurement": "ED50", "value": 0.31, "unit": "mg/kg"}]}
{"compound": "COc1ccc(Cn2c(CC3CCN(CCO)CC3)nc3ccccc32)cc1", "note": "[Compound 110, 4-[[1-[(4-methoxyphenyl)methyl]-1H-benzimidazol-2-yl]methyl]-1-piperidineethanol]", "values": [{"measurement": "ED50", "value": 0.02, "unit": "mg/kg"}]}
{"compound": "c1ccc(Cn2c(CC3CCN(CCNc4nccs4)CC3)nc3ccccc32)cc1", "note": "[Compound 363]", "values": [{"measurement": "ED50", "value": 0.04, "unit": "mg/kg"}]}
{"compound": "COc1ccc(CCN2CCC(Cc3nc4ncccc4n3Cc3ccc(F)cc3)CC2)cc1", "note": "[Compound 203, 1-[(4-fluorophenyl)methyl]-2-[[1-[2-(4-methoxyphenyl)ethyl]-4-piperidinyl]methyl]-1H-imidazo-[4,5-b]pyridine]", "values": [{"measurement": "ED50", "value": 0.04, "unit": "mg/kg"}]}
{"compound": "NC(=O)CN1CCC(Cc2nc3ccccc3n2Cc2ccc(F)cc2)CC1", "note": "[Compound 149, 4-[[1-[(4-fluorophenyl)methyl]-1H-benzimidazol-2-yl]methyl]-1-piperidineacetamide]", "values": [{"measurement": "ED50", "value": 0.04, "unit": "mg/kg"}]}
{"compound": "Fc1ccc(Cn2c(CC3CCN(CCOCc4ccccn4)CC3)nc3cccnc32)cc1", "note": "[Compound 394, 3-[(4-fluorophenyl)methyl]-2-[[1-[2-(2-pyridinylmethoxy)ethyl]-4-piperidinyl]-methyl]-3H-imidazol[4,5-b]pyridine]", "values": [{"measurement": "ED50", "value": 0.02, "unit": "mg/kg"}]}
{"compound": "CN1CCC(Oc2nc3ccccc3n2Cc2ccc(F)cc2)CC1", "note": "[Compound 85]", "values": [{"measurement": "ED50", "value": 0.01, "unit": "mg/kg"}]}
{"compound": "CCNC(=O)NCCN1CCC(Cc2nc3cccnc3n2Cc2ccc(F)cc2)CC1", "note": "[Compound 429, N-ethyl-N'-[2-[4-[[3-[(4-fluorophenyl)methyl]-3H-imidazo[4,5-b]pyridin-2-yl]-methyl]-1-piperidinyl]ethyl]urea]", "values": [{"measurement": "ED50", "value": 0.02, "unit": "mg/kg"}]}
{"compound": "Cc1nc2ccccn2c(=O)c1CCN1CCC(Cc2nc3ccncc3n2Cc2ccc(F)cc2)CC1", "note": "[Compound 270]", "values": [{"measurement": "ED50", "value": 0.08, "unit": "mg/kg"}]}
{"compound": "CCOC(=O)NCCN1CCC(Sc2nc3ccccc3n2Cc2ccc(F)cc2)CC1", "note": "[Compound 243, ethyl [2-[4-[[1-[(4-fluorophenyl)methyl]-1H-benzimidazol-2-yl]-thio]-1-piperidinyl)ethyl]carbamate]", "values": [{"measurement": "ED50", "value": 0.04, "unit": "mg/kg"}]}
{"compound": "O=c1[nH]c2ccccc2c(=O)n1CCCCN1CCC(Cc2nc3cccnc3n2Cc2ccco2)CC1", "note": "[Compound 491, 3-[4-[4-[[3-(2-furanylmethyl)-3H-imidazo[4,5-b]pyridin-2-yl]methyl]-1-piperidinyl]butyl]-2,4-(1H,3H)-quinazolinedione]", "values": [{"measurement": "ED50", "value": 0.16, "unit": "mg/kg"}]}
{"compound": "COc1ccc(Cn2c(CC3CCN(CCCn4c(=O)[nH]c5ccccc54)CC3)nc3ccccc32)cc1", "note": "[Compound 154]", "values": [{"measurement": "ED50", "value": 0.08, "unit": "mg/kg"}]}
{"compound": "Fc1ccc(Cn2c(CC3CCN(Cc4ccccc4)CC3)nc3ccncc32)cc1", "note": "[Compound 25, 3-[(4-fluorophenyl)methyl]-2-[[1-(phenylmethyl)-4-piperidinyl]-methyl]-3H-imidazo[4,5-c]pyridine]", "values": [{"measurement": "ED50", "value": 0.16, "unit": "mg/kg"}]}
{"compound": "O=C(Cc1ccsc1)NCCN1CCC(Cc2nc3ccccc3n2Cc2ccc(F)cc2)CC1", "note": "[Compound 440, N-[2-[4-[[1-[(4-fluorophenyl)methyl]-1H-benzimidazol-2-yl]methyl]-1-piperidinyl]ethyl]-3-thiopheneacetamide]", "values": [{"measurement": "ED50", "value": 0.02, "unit": "mg/kg"}]}
{"compound": "COc1ccc(CCN2CCC(Cc3nc4ccccc4n3Cc3ccccc3F)CC2)cc1", "note": "[Compound 515, 1-[(2-fluorophenyl)methyl]-2-[[1-[2-(4-methoxyphenyl)ethyl]-4-piperidinyl]-methyl]-1H-benzimidazole]", "values": [{"measurement": "ED50", "value": 0.16, "unit": "mg/kg"}]}
{"compound": "c1coc(Cn2c(CC3CCN(CCNc4nccs4)CC3)nc3cccnc32)c1", "note": "[Compound 352, 4-[[3-(2-furanylmethyl)-3H-imidazo[4,5-b]pyridin-2-yl]methyl]-N-(2-thiazolyl)-1-piperidineethanamine]", "values": [{"measurement": "ED50", "value": 0.01, "unit": "mg/kg"}]}
{"compound": "Cc1nc2n(c(=O)c1CCN1CCC(Cc3nc4ccccc4n3Cc3ccco3)CC1)CCS2", "note": "[Compound 163]", "values": [{"measurement": "ED50", "value": 0.02, "unit": "mg/kg"}]}
